We go through 13 compounds from patent publication US9115134B2, “6-triazolopyridazine sulfanyl benzothiazole derivatives as MET inhibitors” (SANOFI, priority 2007, dated 2015).

The target of test [1] is T1, MET (Homo sapiens, UniProt P08581). As to the kind of experiment: Test B: Inhibition of the autophosphorylation of MET; ELISA technique (pppY1230,1234,1235) in MKN45 cells. Also noted: Seed MKN45 cells into 96-well plates (Cell coat BD polylysine) at 20 000 cells/well; endogenous in cells; host or cells: MKN45 cells. The note with it: 1 h treatment, PhosphoMET ELISA. In kind it is cell-based. The protocol: Leave to adhere for 24 hours in an incubator.
The cells are treated the day after seeding with the products at 6 concentrations in duplicate for 1 h. At least 3 control wells are treated with the same final amount of DMSO.
Product dilution: Stock at 10 mM in pure DMSO—range from 10 mM to 30 μM with an increment of 3 in pure DMSO—intermediate 1/50 dilutions in culture medium and then removal of 10 μl added directly to the cells (200 μl): final range of 10 000 to 30 nM.
At the end of the incubation, carefully remove the supernatant and rinse with 200 μl of PBS. Next, place 100 μl of lysis buffer directly in the wells on ice and incubate at 4° C. for 30 minutes. Lysis buffer: 10 mM Tris HCl, pH7.4, 100 mM NaCl, 1 mM EDTA, 1 mM EGTA, 1% Triton X-100, 10% glycerol, 0.1% SDS, 0.5% deoxycholate, 20 mM NaF, 2 mM Na3VO4, 1 mM PMSF and cocktail of antiproteases.
The 100 μl of lysates are transferred into a V-bottomed polypropylene plate and the ELISA is performed immediately, or the plate is frozen at −80° C. • b) PhosphoMET ELISA BioSource Kit KH00281
Into each well of the kit plate, add 70 μl of kit dilution buffer+30 μL of cell lysate or 30 μl of lysis buffer for the blanks. Incubate for 2 h with gentle agitation at ambient temperature.
Rinse the wells 4 times with 400 μl of kit washing buffer. Incubate with 100 μl of anti-phospho MET antibody for 1 hour at ambient temperature.
Rinse the wells 4 times with 400 μl of kit washing buffer. Incubate with 100 μl of anti-rabbit HRP antibody for 30 minutes at ambient temperature (except for the wells of chromogen alone).
Rinse the wells 4 times with 400 μl of kit washing buffer. Introduce 100 μL of chromogen and incubate for 30 minutes in the dark at ambient temperature.
(§1) Stop the reaction with 100 μl of stop solution. Read without delay at […], 0.1 second on Wallac Victor plate reader. • C) Test C: Measurement of cell proliferation by ^14c-thymidine pulse
Target sequence in this assay (P08581 25-1390): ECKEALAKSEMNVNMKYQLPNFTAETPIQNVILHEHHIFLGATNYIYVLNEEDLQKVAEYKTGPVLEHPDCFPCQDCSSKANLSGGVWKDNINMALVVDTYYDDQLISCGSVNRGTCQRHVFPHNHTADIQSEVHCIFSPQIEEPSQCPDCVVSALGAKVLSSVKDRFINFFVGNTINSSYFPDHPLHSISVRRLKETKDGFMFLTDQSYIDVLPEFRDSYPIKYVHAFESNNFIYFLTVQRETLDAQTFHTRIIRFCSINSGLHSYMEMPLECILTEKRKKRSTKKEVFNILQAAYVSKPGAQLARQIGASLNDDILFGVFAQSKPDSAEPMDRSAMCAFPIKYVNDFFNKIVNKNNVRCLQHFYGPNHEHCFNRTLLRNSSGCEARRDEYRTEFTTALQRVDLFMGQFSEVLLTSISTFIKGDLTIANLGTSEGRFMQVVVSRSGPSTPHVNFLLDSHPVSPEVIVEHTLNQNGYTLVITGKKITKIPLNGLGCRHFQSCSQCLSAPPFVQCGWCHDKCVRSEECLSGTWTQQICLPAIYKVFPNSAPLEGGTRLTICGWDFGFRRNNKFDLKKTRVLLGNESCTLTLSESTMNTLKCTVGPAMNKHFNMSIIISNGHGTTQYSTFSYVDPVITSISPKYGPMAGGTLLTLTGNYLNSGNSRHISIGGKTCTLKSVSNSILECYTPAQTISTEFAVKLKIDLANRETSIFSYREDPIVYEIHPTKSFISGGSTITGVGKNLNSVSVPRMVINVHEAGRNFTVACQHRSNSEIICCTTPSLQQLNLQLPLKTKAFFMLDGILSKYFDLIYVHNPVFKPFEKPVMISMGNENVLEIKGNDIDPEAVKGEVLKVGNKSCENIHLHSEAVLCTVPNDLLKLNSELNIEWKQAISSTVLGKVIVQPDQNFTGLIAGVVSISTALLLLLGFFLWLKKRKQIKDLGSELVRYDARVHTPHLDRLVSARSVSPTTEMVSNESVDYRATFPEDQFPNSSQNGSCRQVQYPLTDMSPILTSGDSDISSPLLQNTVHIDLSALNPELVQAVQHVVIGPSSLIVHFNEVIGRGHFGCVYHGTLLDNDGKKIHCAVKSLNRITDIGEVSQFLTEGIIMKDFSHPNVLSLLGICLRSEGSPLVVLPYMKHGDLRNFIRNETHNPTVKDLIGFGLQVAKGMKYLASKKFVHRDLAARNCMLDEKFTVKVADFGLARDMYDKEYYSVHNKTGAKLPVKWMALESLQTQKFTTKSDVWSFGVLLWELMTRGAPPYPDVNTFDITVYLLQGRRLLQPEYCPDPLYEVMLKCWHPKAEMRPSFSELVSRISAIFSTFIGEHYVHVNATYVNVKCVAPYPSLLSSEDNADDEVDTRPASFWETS

The subject of test [2] is HCT116 cells, MKN45 cells. Nature of the test: Test C: Measurement of cell proliferation by 14C-thymidine pulse. The class given is cell-based. The note with it: 14C-thymidine incorporation, 96 h of treatment; cell line not given. The method, then: as §1
The cells are seeded into Cytostar 96-well plates in 180 μl for 4 hours at 37° C. and 5% CO2: HCT116 cells at a rate of 2500 cells per well in DMEM medium+10% foetal calf serum+1% L-glutamine and MKN45 cells at a rate of 7500 cells per well in RPMI medium+10% foetal calf serum+1% L-glutamine. After these 4 hours of incubation, the products are added in 10 μl as a 20-fold concentrated solution according to the dilution method mentioned for the ELISA. The products are tested at 10 concentrations in duplicate from 10 000 nM to 0.3 nM with an increment of 3.
After treatment for 72 h, add 10 μl of ^14C-thymidine at 10 μCi/ml to obtain 0.1 μCi per well. The ^14C-thymidine incorporation is measured on a Micro-Beta machine (Perkin-Elmer) after 24 hours of pulse and 96 h of treatment.
All the steps of the assay are automated on BIOMEK 2000 or TECAN stations.
For orientation: Uptake of a labelled nucleoside into DNA is a usual measure of proliferation.

The target of test [3] is T1, MET. As to the kind of experiment: Test A: HTRF MET assay in 96-well format. The class given is biochemical. Also noted: The His-Tev-MET (956-1390) recombinant DNA in pFastBac (Invitrogen) is transfected into insect cells; His tag (N, cleaved yes); TEV cleavage site (N); made in house; host or cells: SF21 insect cells (baculovirus, pFastBac). The note with it: MET 5 nM, 10 μM ATP. The method, then:
I) Expression and Purification of MET, Cytoplasmic Domain
The His-Tev-MET (956-1390) recombinant DNA in pFastBac (Invitrogen) is transfected into insect cells, and after several viral amplification steps, the final baculovirus stock is tested for the expression of the protein of interest.
After infection for 72 h at 27° C. with the recombinant virus, the SF21 cell cultures are harvested by centrifugation and the cell pellets are stored at −80° C.
The cell pellets are resuspended in lysis buffer (buffer A [50 mM HEPES, pH 7.5, 250 mM NaCl, 10% glycerol, 1 mM TECP]; +cocktail of protease inhibitors, Roche Diagnostics, without EDTA, ref 1873580), stirred at 4° C. until the mixture is homogeneous and then lyzed mechanically using a “Dounce” type apparatus.
After centrifugation, the lysis supernatant is incubated for 2 h at 4° C. with nickel chelate resin (His-Trap 6 Fast Flow™, GE HealthCare). After washing with 20 volumes of buffer A, the suspension is packed into a column, and the proteins are eluted with a gradient of buffer B ([…]+290 mM imidazole).
The fractions containing the protein of interest for the purpose of electrophoretic analysis (SDS PAGE) are combined, concentrated by ultrafiltration (10 kDa cut-off) and injected onto an exclusion chromatography column (Superdex™ 200, GE HealthCare) equilibrated in buffer A.
After enzymatic cleavage of the histidine tag, the protein is reinjected onto a new IMAC nickel chelate chromatography column (His-Trap 6 Fast Flow™, GE HealthCare) equilibrated in buffer A. The fractions eluted with a gradient of buffer B and containing the protein of interest after electrophoresis (SDS PAGE) are finally combined and conserved at −80° C.
For the production of autophosphorylated protein, the previous fractions are incubated for 1 h at ambient temperature after the addition of 2 mM ATP, 2 mM MgCl2, and 4 mM Na3VO4. After the reaction has been stopped with 5 mM of EDTA, the reaction mixture is injected onto a HiPrep desalifying column (GE HealthCare) preequilibrated in buffer A+4 mM Na3VO4, and the fractions containing the protein of interest (SDS PAGE analysis) are combined and stored at −80° C. The degree of phosphorylation is verified by mass spectrometry (LC-MS) and by peptide mapping.
• A) Test A: HTRF MET assay in 96-well format
MET at a final concentration of 5 nM is incubated in a final volume of 50 μl of enzymatic reaction in the presence of the test molecule (for a final concentration range of from 0.17 nM to 10 μM, 3% DMSO final concentration) in 10 mM MOPS buffer, pH 7.4, 1 mM DTT, 0.01% Tween 20. The reaction is initiated with the substrate solution to obtain final concentrations of 1 μg/ml poly-(GAT), 10 μM ATP and 5 mM MgCl2. After incubation for 10 min at ambient temperature, the reaction is stopped with a 30 μl mix so as to obtain a final solution of 50 mM Hepes pH 7.5, 500 mM potassium fluoride, 0.1% BSA and 133 mM EDTA in the presence of 80 ng of streptavidin 61SAXLB Cis-Bio Int. and 18 ng of anti-phosphotyrosine Mab PT66-Europium Cryptate per well. After incubation for 2 hours at ambient temperature, the reading is taken at 2 wavelengths, 620 nm and 665 nm, on a reader for the TRACE/HTRF technique and the % inhibition is calculated from the 665/620 ratios.
Target sequence in this assay (P08581 956-1390): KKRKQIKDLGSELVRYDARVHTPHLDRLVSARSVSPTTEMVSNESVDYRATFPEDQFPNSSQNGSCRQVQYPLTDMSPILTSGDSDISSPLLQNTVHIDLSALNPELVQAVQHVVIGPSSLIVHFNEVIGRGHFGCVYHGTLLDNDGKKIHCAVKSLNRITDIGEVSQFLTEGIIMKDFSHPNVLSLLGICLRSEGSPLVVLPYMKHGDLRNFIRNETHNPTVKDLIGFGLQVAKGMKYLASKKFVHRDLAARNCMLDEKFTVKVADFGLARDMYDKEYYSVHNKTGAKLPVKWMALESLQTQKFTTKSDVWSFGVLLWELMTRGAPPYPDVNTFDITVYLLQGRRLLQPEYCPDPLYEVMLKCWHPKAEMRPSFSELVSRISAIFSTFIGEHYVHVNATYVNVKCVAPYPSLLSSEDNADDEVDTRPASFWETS
(TR-FRET usually uses a lanthanide donor and a delayed reading to cut background.)

Turning to `COc1ccc2nnc(Sc3ccc4nc(NC(=O)C5CC5)sc4c3)n2n1` [Example 36, N-{6-[(6-Methoxy[1,2,4]triazolo[4,3-b]pyridazin-3-yl)sulphanyl]-1,3-benzothiazol-2-yl}cyclopropanecarboxamide], the figures for the IC50 (against MET [1]; in test [2]; on MET [3]) were under 100 nM, under 1000 nM and under 100 nM, respectively.
On to `CC(=O)Nc1nc2ccc(Sc3nnc4ccc(-c5cccc(F)c5)nn34)cc2s1` [Example 65, N-(6-{[6-(3-Fluorophenyl)[1,2,4]triazolo[4,3-b]pyridazin-3-yl]sulphanyl}-1,3-benzothiazol-2-yl)acetamide], for which the 50% inhibitory concentration (IC50) (as a rule, the concentration needed to halve the response being measured) against MET [1] was under 100 nM; in test [2], under 1000 nM; on MET [3] it was under 100 nM.
For the compound `CC(C)(C)OC(=O)Nc1nc2ccc(Sc3nnc4ccc(OCC(O)CCCl)nn34)cc2s1` (stereo not drawn) [Example 51, 2-Methylpropan-2-yl(6-{[6-(4-chloro-2-hydroxybutoxy)[1,2,4]triazolo[4,3-b]pyridazin-3-yl]sulphanyl}-1,3-benzothiazol-2-yl)carbamate], the values for the 50% inhibitory concentration (IC50) (against MET [1]; in test [2]; at MET [3]) were under 100 nM, under 1000 nM and under 100 nM, respectively.
In the case of `COC(=O)Nc1nc2ccc(Sc3nnc4ccc(-c5ccc(F)cc5)nn34)cc2[nH]1` [Example 4, Methyl (6-{[6-(4-fluorophenyl)[1,2,4]triazolo[4,3-b]pyridazin-3-yl]sulphanyl}-1H-benzimidazol-2-yl)carbamate], the IC50 at MET [1] was under 100 nM; in test [2], under 1000 nM; on MET [3], under 100 nM.
Take `CC(C)(C)C(=O)Nc1ccc2nnc(Sc3ccc4nc(NC(=O)NCCN5CCOCC5)sc4c3)n2n1` [Example 32, 2,2-Dimethyl-N-(3-{[2-({[2-(morpholin-4-yl)ethyl]carbamoyl}amino)-1,3-benzothiazol-6-yl]sulphanyl}[1,2,4]triazolo[4,3-b]pyridazin-6-yl)propanamide]: the results for the IC50 (against MET [1]; in test [2]; at MET [3]) were under 100 nM, under 1000 nM and under 100 nM, respectively.
For `COC(=O)Nc1nc2ccc(Sc3nnc4ccc(-c5ccc(F)cc5)nn34)cc2s1` [Example 1, Methyl (6-{[6-(4-fluorophenyl)[1,2,4]triazolo[4,3-b]pyridazin-3-yl]sulphanyl}-1,3-benzothiazol-2-yl)carbamate], the 50% inhibitory concentration (IC50) was under 100 nM against MET [1], under 1000 nM in test [2] and under 100 nM at MET [3].
As for `Nc1nc2ccc(Sc3nnc4ccc(NC5CCCCC5)nn34)cc2s1` [Example 62, 3-[(2-Amino-1,3-benzothiazol-6-yl)sulphanyl]-N-cyclohexyl[1,2,4]triazolo[4,3-b]pyridazin-6-amine], the results for the IC50 (against MET [1]; in test [2]; at MET [3]) were under 100 nM, under 1000 nM and under 100 nM, respectively.
For the compound `CCOc1ccc2nnc(Sc3ccc4nc(NC(=O)CCOC)sc4c3)n2n1` [Example 58, N-{6-[(6-Ethoxy[1,2,4]triazolo[4,3-b]pyridazin-3-yl)sulphanyl]-1,3-benzothiazol-2-yl}-3-methoxypropanamide], the results for the IC50 (against MET [1]; in test [2]; on MET [3]) were under 100 nM, under 1000 nM and under 100 nM, respectively.
`O=C(NCCN1CCOCC1)Nc1nc2ccc(Sc3nnc4ccc(-n5ccnc5)nn34)cc2s1` [Example 20, 1-(6-{[6-(1H-Imidazol-1-yl)[1,2,4]triazolo[4,3-b]pyridazin-3-yl]sulphanyl}-1,3-benzothiazol-2-yl)-3-[2-(morpholin-4-yl)ethyl]urea]: the IC50 at MET [1] is under 100 nM; in test [2] it was under 1000 nM; at MET [3], under 100 nM.
For the compound `O=C(NCCN1CCOCC1)Nc1nc2ccc(Sc3nnc4ccc(N5CCOCC5)nn34)cc2s1` [Example 28, 1-[2-(Morpholin-4-yl)ethyl]-3-(6-{[6-(morpholin-4-yl)[1,2,4]triazolo[4,3-b]-pyridazin-3-yl]sulphanyl}-1,3-benzothiazol-2-yl)urea], the 50% inhibitory concentration (IC50) was under 100 nM at MET [1], under 1000 nM in test [2] and under 100 nM on MET [3].
With `CC(C)(C)OC(=O)Nc1nc2ccc(Sc3nnc4ccc(-c5ccc(F)cc5)nn34)cc2s1` [Example 2, 1,1-Dimethylethyl (6-{[6-(4-fluorophenyl)[1,2,4]triazolo[4,3-b]pyridazin-3-yl]sulphanyl}-1,3-benzothiazol-2-yl)carbamate], the values for the half-maximal inhibitory concentration (IC50) (against MET [1]; in test [2]; at MET [3]) were 100 to 500 nM, under 1000 nM and under 100 nM, respectively.
For `O=C(NCCN1CCOCC1)Nc1nc2ccc(Sc3nnc4ccc(OCC5CCO5)nn34)cc2s1` (stereo not drawn) [Example 34, 1-[2-(Morpholin-4-yl)ethyl]-3-(6-{[6-(oxetan-2-ylmethoxy)[1,2,4]triazolo[4,3-b]pyridazin-3-yl]sulphanyl}-1,3-benzothiazol-2-yl)urea], in that order: under 100 nM, under 10000 nM and under 100 nM.
Taken in the same sequence, the figures for `CC(C)(C)OC(=O)Nc1nc2ccc(Sc3nnc4ccc(-n5ccnc5)nn34)cc2s1` [Example 22, 1,1-Dimethylethyl (6-{[6-(1H-imidazol-1-yl)[1,2,4]triazolo[4,3-b]pyridazin-3-yl]sulphanyl}-1,3-benzothiazol-2-yl)carbamate] were 100 to 500 nM, under 1000 nM and under 100 nM.
